# Measurements as given in PubChem BioAssay (NCI).
#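 Test compounds were applied to cells in 96-well plates for 48 hours at 5 doses. At the GI50, growth is halved. TGI: total growth inhibition.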
# What was measured:
# Test in all cases: inhibition of tumour cell growth, NCI panel, 48 h
# [1] = system: RXF 393 renal
# [2] = system: CAKI-1 renal
# [3] = system: U251 CNS
# [4] = system: HCT-116 colon
# [5] = system: NCI/ADR-RES ovarian
# [6] = system: SK-MEL-28 melanoma
# [7] = system: SNB-75 CNS
# [8] = system: HOP-62 NSCLC
# [9] = system: SK-MEL-5 melanoma
# [10] = system: UACC-62 melanoma
# [11] = system: PC-3 prostate
# [12] = system: KM12 colon
# [13] = system: MALME-3M melanoma
# [14] = system: DU-145 prostate
# [15] = system: SF-295 CNS
# [16] = system: LOX IMVI melanoma
# [17] = system: CCRF-CEM leukemia
# [18] = system: ACHN renal
# [19] = system: SW-620 colon
# [20] = system: SF-268 CNS
# [21] = system: OVCAR-4 ovarian
# [22] = system: IGROV1 ovarian
# [23] = system: A549 NSCLC
# [24] = system: 786-0 renal
# [25] = system: MDA-MB-435
# [26] = system: MOLT-4 leukemia
# [27] = system: MDA-N
# [28] = system: OVCAR-3 ovarian
# [29] = system: T-47D breast
# [30] = system: SK-MEL-2 melanoma
# [31] = system: COLO 205 colon
# [32] = system: M14 melanoma
# [33] = system: UACC-257 melanoma
# [34] = system: EKVX NSCLC
# [35] = system: SNB-19 CNS
# [36] = system: K-562 leukemia
# [37] = system: BT-549 breast
# [38] = system: HOP-92 NSCLC
# [39] = system: SK-OV-3 ovarian
# [40] = system: MDA-MB-231 breast
# [41] = system: OVCAR-5 ovarian
# [42] = system: HL-60(TB) leukemia
# [43] = system: NCI-H226 lung
# [44] = system: NCI-H522 lung
# [45] = system: OVCAR-8 ovarian
# [46] = system: RPMI-8226 leukemia
# [47] = system: SN12C renal
# [48] = system: UO-31 renal
# [49] = system: TK-10 renal
# [50] = system: NCI-H23 lung
# [51] = system: HT29 colon
# [52] = system: HCT-15 colon
# [53] = system: HS 578T breast
# [54] = system: MCF7 breast
# [55] = system: A498 renal
compound,measurement,setting,value
CN1CCCC1c1cccnc1.O=C(O)c1ccccc1O.O=C([O-])c1ccccc1[OH2+].O=C([O-])c1ccccc1[OH2+].O=C([O-])c1ccccc1[OH2+].[Cu+2] (stereo not given),GI50,[1],> 100 µM
same,TGI,[1],> 100 µM
same,GI50,[2],> 100 µM
same,TGI,[2],> 100 µM
same,GI50,[3],> 100 µM
same,TGI,[3],> 100 µM
same,GI50,[4],> 100 µM
same,TGI,[4],> 100 µM
same,GI50,[5],> 100 µM
same,TGI,[5],> 100 µM
same,GI50,[6],> 100 µM
same,TGI,[6],> 100 µM
same,GI50,[7],> 100 µM
same,TGI,[7],> 100 µM
same,GI50,[8],> 100 µM
same,TGI,[8],> 100 µM
same,GI50,[9],33.3 µM
same,TGI,[9],> 100 µM
same,GI50,[10],> 100 µM
same,TGI,[10],> 100 µM
same,GI50,[11],> 100 µM
same,TGI,[11],> 100 µM
same,GI50,[12],> 100 µM
same,TGI,[12],> 100 µM
same,GI50,[13],> 100 µM
same,TGI,[13],> 100 µM
same,GI50,[14],> 100 µM
same,TGI,[14],> 100 µM
same,GI50,[15],> 100 µM
same,TGI,[15],> 100 µM
same,GI50,[16],> 100 µM
same,TGI,[16],> 100 µM
same,GI50,[17],> 100 µM
same,TGI,[17],> 100 µM
same,GI50,[18],> 100 µM
same,TGI,[18],> 100 µM
same,GI50,[19],> 100 µM
same,TGI,[19],> 100 µM
same,GI50,[20],> 100 µM
same,TGI,[20],> 100 µM
same,GI50,[21],56.1 µM
same,TGI,[21],> 100 µM
same,GI50,[22],91.1 µM
same,TGI,[22],> 100 µM
same,GI50,[23],78.9 µM
same,TGI,[23],> 100 µM
same,GI50,[24],> 100 µM
same,TGI,[24],> 100 µM
same,GI50,[25],> 100 µM
same,TGI,[25],> 100 µM
same,GI50,[26],> 100 µM
same,TGI,[26],> 100 µM
same,GI50,[27],> 100 µM
same,TGI,[27],> 100 µM
same,GI50,[28],> 100 µM
same,TGI,[28],> 100 µM
same,GI50,[29],> 100 µM
same,TGI,[29],> 100 µM
same,GI50,[30],> 100 µM
same,TGI,[30],> 100 µM
same,GI50,[31],> 100 µM
same,TGI,[31],> 100 µM
same,GI50,[32],> 100 µM
same,TGI,[32],> 100 µM
same,GI50,[33],> 100 µM
same,TGI,[33],> 100 µM
same,GI50,[34],> 100 µM
same,TGI,[34],> 100 µM
same,GI50,[35],39.6 µM
same,TGI,[35],> 100 µM
same,GI50,[36],> 100 µM
same,TGI,[36],> 100 µM
same,GI50,[37],> 100 µM
same,TGI,[37],> 100 µM
same,GI50,[38],> 100 µM
same,TGI,[38],> 100 µM
same,GI50,[39],> 100 µM
same,TGI,[39],> 100 µM
same,GI50,[40],> 100 µM
same,TGI,[40],> 100 µM
same,GI50,[41],> 100 µM
same,TGI,[41],> 100 µM
same,GI50,[42],> 100 µM
same,TGI,[42],> 100 µM
same,GI50,[43],> 100 µM
same,TGI,[43],> 100 µM
same,GI50,[44],> 100 µM
same,TGI,[44],> 100 µM
same,GI50,[45],> 100 µM
same,TGI,[45],> 100 µM
same,GI50,[46],> 100 µM
same,TGI,[46],> 100 µM
same,GI50,[47],> 100 µM
same,TGI,[47],> 100 µM
same,GI50,[48],> 100 µM
same,TGI,[48],> 100 µM
same,GI50,[49],> 100 µM
same,TGI,[49],> 100 µM
same,GI50,[50],> 100 µM
same,TGI,[50],> 100 µM
same,GI50,[51],> 100 µM
same,TGI,[51],> 100 µM
same,GI50,[52],> 100 µM
same,TGI,[52],> 100 µM
same,GI50,[53],> 100 µM
same,TGI,[53],> 100 µM
same,GI50,[54],45.3 µM
same,TGI,[54],> 100 µM
same,GI50,[55],31.3 µM
same,TGI,[55],76.1 µM
